Laboratory results reported in patent publication US20230219962A1, “PYRAZOLO[4,3-d]PYRIMIDINE DERIVATIVES AND METHODS OF USE THEREOF FOR THE TREATMENT OF CELLULAR PROLIFERATIVE DISORDERS” (Merck Sharp & Dohme LLC, priority 2020, published 2023).

Experiments:
hTLR8 = molecular target: T1, hTLR8 (Homo sapiens, UniProt Q9NR97); test: Human TLR8 Reporter Assay; assay type: cell-based; conditions: HEK-Blue hTLR8 cells, 16 hours, normalized to tl8-506 (1 μM) and DMSO
T1 construct: host or cells: HEK-Blue hTLR8 cells (HEK293-derived, own knowledge)
T1 sequence (Q9NR97 27-1041): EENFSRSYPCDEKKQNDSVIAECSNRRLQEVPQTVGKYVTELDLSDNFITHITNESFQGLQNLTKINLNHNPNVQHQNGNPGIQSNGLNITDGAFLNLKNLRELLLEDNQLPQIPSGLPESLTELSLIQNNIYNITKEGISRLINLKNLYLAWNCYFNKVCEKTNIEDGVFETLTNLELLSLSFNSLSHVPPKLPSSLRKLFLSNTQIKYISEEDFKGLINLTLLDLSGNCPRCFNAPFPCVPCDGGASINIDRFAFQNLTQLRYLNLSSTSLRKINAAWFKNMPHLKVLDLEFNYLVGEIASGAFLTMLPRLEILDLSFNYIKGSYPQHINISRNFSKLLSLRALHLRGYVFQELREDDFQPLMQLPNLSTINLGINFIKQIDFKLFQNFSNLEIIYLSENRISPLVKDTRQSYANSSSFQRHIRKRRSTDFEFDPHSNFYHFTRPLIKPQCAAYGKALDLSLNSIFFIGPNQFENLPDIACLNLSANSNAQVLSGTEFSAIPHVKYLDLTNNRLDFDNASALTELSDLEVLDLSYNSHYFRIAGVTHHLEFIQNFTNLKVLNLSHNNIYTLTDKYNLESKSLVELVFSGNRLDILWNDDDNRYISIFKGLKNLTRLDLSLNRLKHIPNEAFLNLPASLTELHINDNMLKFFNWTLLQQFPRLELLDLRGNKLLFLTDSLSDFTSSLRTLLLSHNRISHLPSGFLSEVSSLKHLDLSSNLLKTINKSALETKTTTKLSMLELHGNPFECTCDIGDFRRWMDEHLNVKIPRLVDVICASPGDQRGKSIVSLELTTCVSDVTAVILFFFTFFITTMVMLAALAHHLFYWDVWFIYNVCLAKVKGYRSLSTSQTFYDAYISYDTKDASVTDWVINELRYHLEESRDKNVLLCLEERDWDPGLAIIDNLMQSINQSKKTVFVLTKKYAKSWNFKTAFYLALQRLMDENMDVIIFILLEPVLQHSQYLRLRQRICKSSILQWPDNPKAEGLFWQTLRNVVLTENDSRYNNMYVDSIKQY
Description: (§1) HEK-Blue™ hTLR8 cells (Invivogen, San Diego, Calif.) were maintained at 37° C./5% CO2/90% relative humidity in Dulbecco's Modified Eagle's Medium with 10% fetal bovine serum, 100 units/mL penicillin, 100 μg/mL streptomycin, 100 μg/mL normocin, 10 μg/mL blasticidin, and 100 μg/mL zeocin. HEK-Blue™ hTLR8 cells were maintained at 10-90% confluence and used before passage 20. For this assay, test compounds were dissolved in DMSO, and 10-point serial 3-fold dilution series in DMSO were prepared in Echo Qualified 384-well Polypropylene Microplates (Labcyte, San Jose, Calif.). Assay plates (384-well flat, clear bottom, black polystyrene TC-treated microtiter plates; Corning, Corning, N.Y.) were prepared by dispensing 150 nL of test compounds, high control (tl8-506; Invivogen, San Diego, Calif.), and low control (DMSO) by ECHO acoustic dispenser (Labcyte, San Jose Calif.) followed by addition of 5 μL of HEK-Blue™ Detection assay media (Invivogen, San Diego, Calif.). HEK-Blue™ hTLR8 cells in HEK-Blue™ Detection assay media (20,000 cells per well in 45 μL of media) were added to the assay plate and incubated for 16 hours at 37° C./5% CO2/90% relative humidity. For detection, assay plates were removed from the incubator, allowed to cool to ambient temperature, centrifuged at 200×g for 1 minutes, and read with an EnSpire Multimode Plate Reader (Perkin Elmer, Waltham, Mass.) for absorbance at 620 nm. Test compound effects were normalized to the window defined by the controls, tl8-506 (1 μM), and DMSO. Calculated % effects were fit using a 4-parameter algorithm, and EC50 was reported.

hTLR7 = molecular target: T2, hTLR7 (Homo sapiens, UniProt Q9NYK1); test: Human TLR7 Reporter Assay; assay type: cell-based; conditions: HEK-Blue hTLR7 cells, 16 hours, normalized to CL097 (6 μM) and DMSO
T2 construct: host or cells: HEK-Blue hTLR7 cells (HEK293-derived, own knowledge)
T2 sequence (Q9NYK1 27-1049): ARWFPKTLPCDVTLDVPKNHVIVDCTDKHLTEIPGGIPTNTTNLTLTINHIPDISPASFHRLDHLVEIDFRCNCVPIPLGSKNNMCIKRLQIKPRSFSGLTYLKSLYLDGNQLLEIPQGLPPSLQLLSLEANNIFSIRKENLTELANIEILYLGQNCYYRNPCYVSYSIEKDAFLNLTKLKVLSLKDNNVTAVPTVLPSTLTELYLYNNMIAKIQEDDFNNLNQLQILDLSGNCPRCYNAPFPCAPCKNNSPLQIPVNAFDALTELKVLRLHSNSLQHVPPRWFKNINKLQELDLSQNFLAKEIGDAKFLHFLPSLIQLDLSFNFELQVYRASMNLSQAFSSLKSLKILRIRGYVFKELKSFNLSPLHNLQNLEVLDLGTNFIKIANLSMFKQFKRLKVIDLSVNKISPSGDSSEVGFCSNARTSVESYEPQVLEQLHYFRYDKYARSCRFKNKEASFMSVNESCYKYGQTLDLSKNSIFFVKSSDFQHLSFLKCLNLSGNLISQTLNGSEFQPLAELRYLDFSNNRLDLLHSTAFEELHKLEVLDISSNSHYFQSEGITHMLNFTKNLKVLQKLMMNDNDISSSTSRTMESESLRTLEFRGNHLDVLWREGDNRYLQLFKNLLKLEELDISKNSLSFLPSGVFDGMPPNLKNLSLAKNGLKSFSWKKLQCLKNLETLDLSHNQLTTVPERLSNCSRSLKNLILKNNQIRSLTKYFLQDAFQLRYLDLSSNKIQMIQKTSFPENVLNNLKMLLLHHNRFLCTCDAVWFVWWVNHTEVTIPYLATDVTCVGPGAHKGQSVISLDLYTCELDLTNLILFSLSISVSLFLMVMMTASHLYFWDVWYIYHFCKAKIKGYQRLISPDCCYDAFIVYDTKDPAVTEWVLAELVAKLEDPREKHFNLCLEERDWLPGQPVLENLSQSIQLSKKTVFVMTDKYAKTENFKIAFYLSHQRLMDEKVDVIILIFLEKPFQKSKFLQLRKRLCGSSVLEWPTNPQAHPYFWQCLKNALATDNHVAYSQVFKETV
Description: as §1, with “hTLR7” for “hTLR8”, “(CL097;” for “(tl8-506;”, “CL097 (6” for “tl8-506 (1”

EC50 (hTLR8) [nM] | EC50 (hTLR7) [nM] | Structure (SMILES)
1590 | 277 | CCCCNc1nc(N)nc2cn(Cc3cn(C)nc3OC)nc12 [Compound 197]
2200 | 751 | CCCCNc1nc(N)nc2cn(Cc3ccon3)nc12 [Compound 117]
499 | 74.4 | CCCCNc1nc(N)nc2cn(Cc3cccnc3OC)nc12 [Compound 100]
91 | 42.2 | C=CCN(C)Cc1cc(OC)c(Cn2cc3nc(N)nc(N[C@H](CO)CCC)c3n2)c(OC)c1 [Compound 161]
1260 | 153 | CCCCNc1nc(N)nc2cn(Cc3cnccc3OC)nc12 [Compound 101]
2470 | 361 | CCCCNc1nc(N)nc2cn(Cc3ccc4c(c3)CCC4N)nc12 (stereo not shown) [Compound 235]
785 | 1590 | CCC[C@@H](CO)Nc1nc(N)nc2cn(Cc3ncc(CNC)cc3OC)nc12 [Compound 195]
15500 | 20100 | CCC[C@@H](CO)Nc1nc(N)nc2cn(Cc3c(OC)cc(CN(C)CCCN)cc3OC)nc12 [Compound 210]
179 | 357 | CCCCNc1nc(N)nc2cn(Cc3ccc(C(C)N)cc3OC)nc12 (stereo not shown) [Compound 167]
24600 | 2620 | CCCCNc1nc(N)nc2cn(Cc3c(OC)cc(CN4CCN(C(=O)C5CCC(CN6C(=O)CC(SC[C@H](N)C(=O)O)C6=O)CC5)CC4)cc3OC)nc12 (stereo partly shown) [Compound 89]
1020 | 119 | CCCCNc1nc(N)nc2cn(Cc3c(OC)cc(N)cc3OC)nc12 [Compound 65]
632 | 93 | CCCCNc1nc(N)nc2cn(Cc3ccc(N)cc3OC)nc12 [Compound 166]
2320 | 490 | CCCCNc1nc(N)nc2cn(Cc3ncoc3C)nc12 [Compound 121]
206 | 19 | CCC[C@@H](C)Nc1nc(N)nc2cn(Cc3c(OC)cccc3OC)nc12 [Compound 113]

The remaining lines, values behind:

Structure (SMILES) | EC50 (hTLR8) [nM] | EC50 (hTLR7) [nM]
CCCC(Nc1nc(N)nc2cn(Cc3c(OC)cccc3OC)nc12)C(F)F (stereo not shown) [Compound 136] | 1340 | 174
CCCCNc1nc(N)nc2cn(Cc3ccc(N4CCNCC4)cn3)nc12 [Compound 123] | 880 | 743
CCCNC(C)c1ccc(Cn2cc3nc(N)nc(N[C@H](CO)CCC)c3n2)c(OC)c1 (stereo partly shown) [Compound 232] | 78.1 | 363
CCCCNc1nc(N)nc2cn(Cc3ccc(C4CCNC4)cc3OC)nc12 (stereo not shown) [Compound 237] | 7250 | 616
CCCCNc1nc(N)nc2cn(Cc3cc(OC)c(CN(C)CCCN4C(=O)C=CC4=O)cc3OC)nc12 [Compound 143] | > 3330 | 360
CCCNC(C)c1ccc(Cn2cc3nc(N)nc(N[C@H](CO)CCC)c3n2)c(OC)c1 (stereo partly shown) [Compound 231] | 48.9 | 619
CCCCNc1nc(N)nc2cn(CCc3ccccc3OC)nc12 [Compound 36] | > 29900 | 3100
CCCCNc1nc(N)nc2cn(Cc3c(OC)ccc(CN4CCNCC4)c3OC)nc12 [Compound 78] | 2560 | 2650
COc1cccc(OC)c1Cn1cc2nc(N)nc(NC(C)C)c2n1 [Compound 27] | 4380 | 1120
CCC[C@@H](CO)Nc1nc(N)nc2cn(Cc3c(OC)cc(CN(C)CCN)cc3OC)nc12 [Compound 213] | 2230 | 4750
CCCC(Nc1nc(N)nc2cn(Cc3c(OC)cccc3OC)nc12)C(F)(F)F (stereo not shown) [Compound 126] | > 9980 | 707
CCCCNc1nc(N)nc2cn(Cc3nc(NCCCN)ccc3OC)nc12 [Compound 162] | 1010 | 160
CCCCNc1nc(N)nc2cn(Cc3ccc(CN4CC(CN)C4)cc3OC)nc12 [Compound 118] | 144 | 249
CCCCNc1nc(N)nc2cn(Cc3ncnn3C)nc12 [Compound 174] | 8320 | 1450
CCCCNc1nc(N)nc2cn(Cc3ccncc3OC)nc12 [Compound 93] | 611 | 120
CCCCNc1nc(N)nc2cn(Cc3ccc(C4CCNC4=O)cc3)nc12 (stereo not shown) [Compound 200] | 4900 | 185
CCCCNc1nc(N)nc2cn(Cc3ccc(C4CCNC4)cc3)nc12 (stereo not shown) [Compound 196] | 756 | 456
CCCCNc1nc(N)nc2cn(Cc3ccc(CN4C(=O)C=CC4=O)cc3OC)nc12 [Compound 104] | 2040 | 292
